We go through one compound from article PMC11546339, “Conformational Plasticity Enhances the Brain Penetration of a Metabolically Stable, Dual-Functional Opioid-Peptide CycloAnt” (International Journal of Molecular Sciences, 2024).

Data set [1] can be described thus: Metabolism by UGTs in mouse liver microsomes (UDPGA). It is filed as in vitro ADME. The following applies: 3.07 μM, 0.5 mg/mL microsomes, alamethicin, 5 mM UDPGA, 37 °C, 60 min. The method, then: Next, we examined the level of glucuronidation of CycloAnt in mouse liver microsomes using a method described elsewhere. CycloAnt at a final concentration of 3.07 μM was premixed with 0.5 mg/mL liver microsomes and a channel-forming peptide antibiotic alamethicin at 0 °C. After 15 min, the glucuronidation was initiated by adding the UDP-glucuronosyl transferases (UGTs) substrate uridine-5’-diphospho-α-D-glucuronic acid (UDPGA) to a final concentration of 5 mM and the mixture was incubated at 37 °C [19]. At 0, 5, 15, 30, and 60 min, the incubation mixture was withdrawn and processed. The supernatant was collected and analyzed by LC-MS/MS.
Metabolism by UDP-glucuronosyl transferases (UGTs) in liver microsomes. CycloAnt dissolved in pH 7.2 PBS was diluted to 8 μM. Six hundred microliters of diluted CycloAnt, 800 μL of 0.975 mg/mL mouse liver microsomes, and 14 μL of 0.5 mM alamethicin containing 10 mM MgCl2, were mixed and preincubated on ice for 15 min. The reaction was then initiated by adding 74 μL of 100 mM uridine-5’-diphospho-α-D-glucuronic acid (UDPGA) and incubated at 37 °C for 0, 5, 15, 30, and 60 min. […] The dried sample was reconstituted in 100 μL of 20% acetonitrile and stored at −20 °C before analyzed by LC-MS/MS on the next day. […]

A short description of data set [2]: Pharmacokinetic study in mice (plasma and brain). The following applies: male, C57BL/6, mouse, ip, 3 mg/kg i.p. It counts as in vivo. The method, then: To evaluate the amount of CycloAnt in mouse brain, we performed a pharmacokinetic experiment in mice. Mice were given CycloAnt at 3 mg/kg i.p.; blood was collected at 0, 15, 30, and 60 min post-injection. Immediately after the blood was collected, the mouse was intracardially perfused through the left ventricle with 20 mL PBS. The whole brain was isolated and homogenized. The blood and brain samples were processed by protein precipitation and centrifugation. The supernatants of the blood and brain samples were collected and analyzed by LC-MS/MS.
Pharmacokinetic study. Standard curve. Following euthanasia, mouse blood was collected in a heparin anticoagulation tube and the whole brain was isolated. For determination of the standard curve in mouse blood, 300 μL of blood was spiked with 0, 10, 100, and 1000 ng of CycloAnt, respectively, followed by adding 600 μL of ice-cold acetonitrile containing the internal standard (IS, Tyr-[D-Lys-Phe-Tyr-Gly]) at 200 ng/mL. The blood samples were thoroughly mixed and centrifuged at 10,000 rpm at 4 °C for 10 min. An aliquot of 600 μL of supernatant from each sample was collected and dried under vacuum, followed by reconstitution of the dried blood sample in 100 μL 20% acetonitrile. The reconstituted sample was centrifuged at 13,000 rpm, 4 °C for 5 min to remove the lipid content. The supernatant was collected for LC-MS/MS analysis. For mouse brain, the brain was homogenized with 250 μL of PBS at 0 °C, followed by adding 1 mL of ice-cold acetonitrile containing the IS. The brain sample was then spiked with 0, 10, 100, and 1000 ng of CycloAnt, respectively, and thoroughly mixed and centrifuged at 10,000 rpm, 4 °C for 10 min. An aliquot of 1000 μL of supernatant was collected and dried under vacuum, followed by adding 100 μL 20% acetonitrile to reconstitute the dried brain sample. The reconstituted sample was mixed and centrifugating at 13,000 rpm, 4 °C for 5 min to remove the lipid content. The supernatant was collected and analyzed by LC-MS/MS.
The peak areas of CycloAnt and IS were recorded; the relative measured concentration of CycloAnt was calculated using the ratio of CycloAnt peak area vs. IS peak area. A standard concentration curve (Figure S8) was then generated for CycloAnt in the matrix of blood and brain, respectively.
Pharmacokinetics. Eight-week-old male C57BL/6 mice (Jackson Laboratories, Bar Harbor, ME, USA) were used for pharmacokinetic studies. CycloAnt was given to mice (n = 2) i.p. at a dose of 3 mg/kg. At 15, 30, and 60 min post-administration, mouse blood was collected in a heparin anticoagulation tube. After blood collection, the mouse was intracardially perfused through the left ventricle with 20 mL PBS, followed by isolation of the whole brain. To process the blood sample, 300 μL blood was mixed with 600 μL of ice-cold acetonitrile containing the IS at 200 ng/mL, followed by centrifugation at 10,000 rpm, 4 °C for 10 min. To process the brain sample, 250 μL of ice-cold PBS was added to the isolated brain and homogenized at 0 °C, followed by mixing with 1 mL of ice-cold acetonitrile containing the IS. The brain sample was then centrifuged at 10,000 rpm, 4 °C for 10 min. The supernatants were collected from the blood sample (600 μL) and the brain sample (1 mL), respectively, and dried under vacuum. The blood and brain samples were reconstituted in 100 μL of 20% acetonitrile. The samples were then centrifuged at 13,000 rpm, 4 °C for 5 min to remove the lipid content. The supernatants were collected from the blood and brain samples and analyzed by LC-MS/MS.

Structures are written as SMILES. Where two headings read alike, the source gives them in different places. Where a SMILES comes first, the peptide text is derived from it. Bridges are numbered along the chain shown (N, C = ends). [ ]: non-standard residue; d: D form. 2Abz = Nc1ccccc1C(=O)O; Dap = NC[C@H](N)C(=O)O

For the compound `C[C@@H](O)[C@@H]1NC(=O)[C@H](CNC(=O)c2ccccc2N)NC(=O)[C@H](NC(=O)[C@@H](N)Cc2ccc(O)cc2)CCCCNC(=O)CNC1=O` [CycloAnt] (H-Y[dK][Dap](2Abz)TG; lactam 2-C), in data set [1], the “stability against glucuronidation in mouse liver microsomes (UGTs)” value is on record as “stable against glucuronidation”. The Tmax in data set [2] (brain, read-out: time of maximum concentration in brain (converted)) was 15 min; in data set [2] (whole blood, read-out: time of maximum concentration in blood (converted)) it was 15 min. Moreover, the Cmax in data set [2] (assuming density of brain tissue 1 g/mL, read-out: maximum concentration in brain (Cmax,br)) amounted to 70 nM; in data set [2] (perfused brain, read-out: maximum concentration in brain (Cmax,br)) it was 46 ng/g; in data set [2] (plasma, read-out: maximum concentration in mouse plasma (Cmax,pl)), 411 ng/mL. Moreover, the AUC in data set [2] (plasma, 0-60 min, read-out: AUCbld (plasma) (converted)) was 173 ng·h/mL.
